From patent US9371331B2, “Modulators of methyl modifying enzymes, compositions and uses thereof” (Constellation Pharmaceuticals, Inc., priority 2012, dated 2016) come the findings set out here.

One may read the IC50 as the concentration that gives 50% inhibition.

Read-outs that look alike come from different tables or passages of the source.

For one assay, the target named is EZH2 (rPRC2) (Homo sapiens, UniProt Q15910). Nature of the assay: EZH2 assay: rPRC2, biotinylated oligonucleosomes, 3H SAM methyl transfer (FlashPlate scintillation). To be noted: biotinylated oligonucleosome substrate. It is filed as biochemical. The method, then:
Assays were carried out by mixing rPRC2 together with biotinylated oligonucleosome substrates in the presence of the radio-labeled enzyme co-factor, S-adenosyl-1-methionine (^3H SAM) (Perkin Elmer) and monitoring the enzymatically mediated transfer of tritiated methyl groups from ^3H SAM to histone lysine residues. The amount of resulting tritiated methyl histone product was measured by first capturing the biotinylated oligonucleosomes in streptavidin (SAV) coated FlashPlates (Perkin Elmer), followed by a wash step to remove un-reacted ^3H SAM, and then counting on a TopCount NXT 384 well plate scintillation counter (Perkin Elmer). The final assay conditions for EZH2 were as follows: 50 mM Tris Buffer pH 8.5, 1 mM DTT, 69 μM Brij-35 detergent, 5.0 mM MgCl2, 0.1 mg/mL BSA, 0.2 μM ^3H SAM, 0.2 μM biotinylated oligonucleosomes, 3.6 μM H3K27 mc3 peptide and 2 nM EZH2.
A 12.5 μL volume of the HMT enzyme, H3K27me3 peptide and oligonucleosome substrate in assay buffer was added to each well of the assay plate using a Multidrop Combi (ThermoFisher). Compounds were pre-incubated with the enzyme for 20 min, followed by initiation of the methyltransferase reaction by addition of 12.5 μL of ^3H SAM in assay buffer (final volume=25 μL). The final concentrations of compounds ranged from a top default concentration of 80 μM down to 0.16 μM in ten 2-fold dilution steps. Reactions were carried out for 60 minutes and quenched with 20 μL per well of 1.96 mM SAH, 50 mM Tris pH 8.5, 200 mM EDTA. Stopped reactions were transferred to SAV coated Flashplates (Perkin Elmer), incubated for 120 min, washed with a plate washer, and then read on the TopCount NXT (1.0 min/well) to measure the amount of methyl histone product formed during the reaction.

The next assay has as its target Y641N EZH2 (Homo sapiens, UniProt Q15910, Y641N). Description: Y641N EZH2 assay: as EZH2 assay, with reconstituted H3K27Me2 oligonucleosomes as substrate. It is filed as biochemical.
[1] abbreviates: EZH2 IC50, wild-type EZH2 (rPRC2).
The mark [2] stands for this setting: Y641N EZH2 IC50, Y641N mutant EZH2, H3K27Me2 oligonucleosome substrate.
The mark [3] stands for this setting: wild-type EZH2 (rPRC2), read-out: EZH2 IC50.
[4] abbreviates: Y641N mutant EZH2, H3K27Me2 oligonucleosome substrate, read-out: Y641N EZH2 IC50.

Sequence of EZH2 (rPRC2) (Q15910 whole entry): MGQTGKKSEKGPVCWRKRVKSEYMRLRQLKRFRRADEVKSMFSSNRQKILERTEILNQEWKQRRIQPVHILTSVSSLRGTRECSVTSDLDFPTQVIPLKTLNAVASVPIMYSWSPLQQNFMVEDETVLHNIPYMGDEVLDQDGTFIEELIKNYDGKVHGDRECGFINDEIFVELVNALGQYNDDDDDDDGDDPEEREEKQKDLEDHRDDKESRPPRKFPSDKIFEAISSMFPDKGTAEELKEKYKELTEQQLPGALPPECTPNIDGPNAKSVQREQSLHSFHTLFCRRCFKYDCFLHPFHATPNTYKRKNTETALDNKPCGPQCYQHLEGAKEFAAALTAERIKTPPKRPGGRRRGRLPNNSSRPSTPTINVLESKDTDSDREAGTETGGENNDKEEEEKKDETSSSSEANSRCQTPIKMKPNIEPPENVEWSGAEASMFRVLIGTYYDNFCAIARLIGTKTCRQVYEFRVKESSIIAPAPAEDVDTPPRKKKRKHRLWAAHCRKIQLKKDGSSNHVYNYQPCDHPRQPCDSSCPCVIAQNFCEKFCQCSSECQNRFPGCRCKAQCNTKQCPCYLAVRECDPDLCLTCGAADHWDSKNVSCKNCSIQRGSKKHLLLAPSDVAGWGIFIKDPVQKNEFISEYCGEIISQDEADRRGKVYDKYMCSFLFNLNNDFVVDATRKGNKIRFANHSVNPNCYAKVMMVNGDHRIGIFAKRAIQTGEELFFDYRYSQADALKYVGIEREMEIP
Sequence of EZH2 (rPRC2) (O75530 whole entry partner): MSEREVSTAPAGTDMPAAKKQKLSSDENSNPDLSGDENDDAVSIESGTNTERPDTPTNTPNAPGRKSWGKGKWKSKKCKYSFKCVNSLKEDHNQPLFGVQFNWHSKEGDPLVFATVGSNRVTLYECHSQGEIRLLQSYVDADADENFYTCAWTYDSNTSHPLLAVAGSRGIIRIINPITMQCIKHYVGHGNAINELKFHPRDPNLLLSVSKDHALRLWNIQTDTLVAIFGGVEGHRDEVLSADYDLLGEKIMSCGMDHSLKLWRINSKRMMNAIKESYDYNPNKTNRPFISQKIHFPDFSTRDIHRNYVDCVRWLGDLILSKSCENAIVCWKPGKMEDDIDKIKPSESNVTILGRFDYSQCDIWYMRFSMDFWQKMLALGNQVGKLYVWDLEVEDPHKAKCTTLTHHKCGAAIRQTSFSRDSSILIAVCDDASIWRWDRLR
Sequence of EZH2 (rPRC2) (Q15022 whole entry partner): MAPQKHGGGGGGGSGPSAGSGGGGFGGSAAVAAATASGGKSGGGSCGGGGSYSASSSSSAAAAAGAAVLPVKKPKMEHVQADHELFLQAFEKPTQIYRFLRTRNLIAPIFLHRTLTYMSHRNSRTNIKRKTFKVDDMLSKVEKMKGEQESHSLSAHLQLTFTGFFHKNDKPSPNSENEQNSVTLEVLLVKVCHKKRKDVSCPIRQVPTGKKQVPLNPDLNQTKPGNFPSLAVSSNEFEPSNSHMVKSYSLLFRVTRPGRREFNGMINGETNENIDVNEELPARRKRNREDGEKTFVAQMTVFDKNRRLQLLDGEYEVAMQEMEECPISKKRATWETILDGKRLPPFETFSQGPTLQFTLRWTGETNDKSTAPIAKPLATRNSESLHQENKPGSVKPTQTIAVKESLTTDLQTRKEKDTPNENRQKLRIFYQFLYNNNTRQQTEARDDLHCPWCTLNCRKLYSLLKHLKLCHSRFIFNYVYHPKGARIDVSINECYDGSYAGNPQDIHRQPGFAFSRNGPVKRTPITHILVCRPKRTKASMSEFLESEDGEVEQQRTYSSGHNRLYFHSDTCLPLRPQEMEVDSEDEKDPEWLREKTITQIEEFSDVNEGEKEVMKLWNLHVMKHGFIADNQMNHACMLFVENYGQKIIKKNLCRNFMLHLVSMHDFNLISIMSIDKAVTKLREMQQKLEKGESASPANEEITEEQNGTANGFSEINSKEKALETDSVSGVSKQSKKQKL
Sequence of Y641N EZH2 (Q15910 whole entry Y641N): as the sequence (Q15910 whole entry) above, with Y641N counted along it
Sequence of Y641N EZH2 (O75530 whole entry partner): as the sequence (O75530 whole entry partner) above
Sequence of Y641N EZH2 (Q15022 whole entry partner): as the sequence (Q15022 whole entry partner) above

Regarding `Cc1cc(C)c(CNC(=O)c2c(C)n(C(C)c3ccccc3)c3cccnc23)c(O)n1` (racemic) [Compound 126, N-((2-hydroxy-4,6-dimethylpyridin-3-yl)methyl)-2-methyl-1-(1-phenylethyl)-1H-pyrrolo[3,2-b]pyridine-3-carboxamide], the IC50 was in the range of 0.1 to 1 µM against EZH2 (rPRC2) (setting [1]) and 1 to 10 µM on Y641N EZH2 (setting [2]).
As for `Cc1cc(C)c(CNC(=O)c2c(C3CC3)n(C(C)c3ccccc3)c3ccccc23)c(O)n1` (racemic) [Compound 131, (±)-2-cyclopropyl-N-((2-hydroxy-4,6-dimethylpyridin-3-yl)methyl)-1-(1-phenylethyl)-1H-indole-3-carboxamide], the “EZH2 IC50” value at EZH2 (rPRC2) (wild-type EZH2 (rPRC2)) is “*(1.0 μM)”. Besides, the “Y641N EZH2 IC50” value on Y641N EZH2 (Y641N mutant EZH2, H3K27Me2 oligonucleosome substrate) is “*(1.0 μM)”.
In the case of `Cc1cc(C)c(CNC(=O)c2c(C)n(C(C)c3ccccc3)c3c(=O)n(C)ccc23)c(=O)[nH]1` (racemic) [Compound 139, N-((4,6-dimethyl-2-oxo-1,2-dihydropyridin-3-yl)methyl)-2,6-dimethyl-7-oxo-1-(1-phenylethyl)-6,7-dihydro-1H-pyrrolo[2,3-c]pyridine-3-carboxamide], the values for the IC50 at EZH2 (rPRC2) (setting [3]) and at Y641N EZH2 (setting [4]) were 0.1 to 1 µM and 1 to 10 µM, respectively.
Consider `Cc1cc(C)c(CNC(=O)c2c(C)n(C(C)c3ccccc3C)c3ccccc23)c(=O)[nH]1` (racemic) [Compound 174, (±)-N-((4,6-dimethyl-2-oxo-1,2-dihydropyridin-3-yl)methyl)-2-methyl-1-(1-(o-tolyl)ethyl)-1H-indole-3-carboxamide], for which the IC50 at EZH2 (rPRC2) (setting [1]) lay in the range of 0.1 to 1 µM; at Y641N EZH2 (setting [2]), 1 to 10 µM.
The matching figures for `Cc1cc(C)c(CNC(=O)c2c(C)n(C(C)c3ccccc3C#N)c3ccccc23)c(=O)[nH]1` (racemic) [Compound 178, (±)-1-(1-(2-cyanophenyl)ethyl)-N-((4,6-dimethyl-2-oxo-1,2-dihydropyridin-3-yl)methyl)-2-methyl-1H-indole-3-carboxamide]: 0.1 to 1 µM and 1 to 10 µM.
For the compound `Cc1cc(C)c(CNC(=O)c2c(C)n(C(C)c3ccc(S(C)(=O)=O)cc3)c3ccccc23)c(=O)[nH]1` (racemic) [Compound 179, (±)-N-((4,6-dimethyl-2-oxo-1,2-dihydropyridin-3-yl)methyl)-2-methyl-1-(1-(4-(methylsulfonyl)phenyl)ethyl)-1H-indole-3-carboxamide], the concentration for half-maximal inhibition (IC50) against EZH2 (rPRC2) (setting [1]) is under 0.1 µM; against Y641N EZH2 (setting [2]), 0.1 to 1 µM.
On the same counts, the results for `CCC(C)n1c(C)c(C(=O)NCc2c(C)cc(C)[nH]c2=O)c2cccnc21` (racemic) [Compound 185, (±)-1-(sec-butyl)-N-((4,6-dimethyl-2-oxo-1,2-dihydropyridin-3-yl)methyl)-2-methyl-1H-pyrrolo[2,3-b]pyridine-3-carboxamide] are 0.1 to 1 µM and 1 to 10 µM.
For `COc1ccccc1C(C)n1c(C)c(C(=O)NCc2c(C)cc(C)[nH]c2=O)c2ccccc21` (racemic) [Compound 186, (±)-N-((4,6-dimethyl-2-oxo-1,2-dihydropyridin-3-yl)methyl)-1-(1-(2-methoxyphenyl)ethyl)-2-methyl-1H-indole-3-carboxamide], the 50% inhibitory concentration (IC50) at EZH2 (rPRC2) (setting [1]) and at Y641N EZH2 (setting [2]) was 0.1 to 1 µM each time.
For the compound `Cc1cc(C)c(CNC(=O)c2c(C)n(C(C)CCO)c3ncccc23)c(=O)[nH]1` (racemic) [Compound 193, (±)-N-((4,6-dimethyl-2-oxo-1,2-dihydropyridin-3-yl)methyl)-1-(4-hydroxybutan-2-yl)-2-methyl-1H-pyrrolo[2,3-b]pyridine-3-carboxamide], the IC50 against EZH2 (rPRC2) (setting [1]) is 0.1 to 1 µM; against Y641N EZH2 (setting [2]) it was 1 to 10 µM.
In the case of `Cc1cc(C)c(COC(=O)c2c(C)n(C3CCOC3)c3ncccc23)c(=O)[nH]1` (racemic) [Compound 202, (±)-(4,6-dimethyl-2-oxo-1,2-dihydropyridin-3-yl)methyl 2-methyl-1-(tetrahydrofuran-3-yl)-1H-pyrrolo[2,3-b]pyridine-3-carboxylate], the values for the 50% inhibitory concentration (IC50) at EZH2 (rPRC2) (setting [1]) and against Y641N EZH2 (setting [2]) were 0.1 to 1 µM and 1 to 10 µM, respectively.
The matching figures for `Cc1cc(C)c(CNC(=O)c2c(C)n(C(C)c3cccc(-c4ccncn4)c3)c3ccccc23)c(=O)[nH]1` (racemic) [Compound 205, (±)-N-((4,6-dimethyl-2-oxo-1,2-dihydropyridin-3-yl)methyl)-2-methyl-1-(1-(3-(pyrimidin-4-yl)phenyl)ethyl)-1H-indole-3-carboxamide]: 0.1 to 1 µM and 0.1 to 1 µM.
In the case of `COc1cccc(C(C)n2c(C)c(C(=O)NCc3c(C)cc(C)[nH]c3=O)c3cccnc32)c1` (racemic) [Compound 206, (±)-N-((4,6-dimethyl-2-oxo-1,2-dihydropyridin-3-yl)methyl)-1-(1-(3-methoxyphenyl)ethyl)-2-methyl-1H-pyrrolo[2,3-b]pyridine-3-carboxamide], the IC50 against EZH2 (rPRC2) (setting [1]) was in the range of 0.1 to 1 µM; at Y641N EZH2 (setting [2]), 1 to 10 µM.
On the same counts, the results for `COc1cc(C)[nH]c(=O)c1CNC(=O)c1c(C)n(C(C)C#N)c2ncccc12` (racemic) [Compound 214, (±)-1-(1-cyanoethyl)-N-((4-methoxy-6-methyl-2-oxo-1,2-dihydropyridin-3-yl)methyl)-2-methyl-1H-pyrrolo[2,3-b]pyridine-3-carboxamide] are 0.1 to 1 µM and 1 to 10 µM.
With `CCCc1cc(C)[nH]c(=O)c1CNC(=O)c1c(C)n(C(C)COC)c2ncccc12` (racemic) [Compound 216, (±)-1-(1-methoxypropan-2-yl)-2-methyl-N-((6-methyl-2-oxo-4-propyl-1,2-dihydropyridin-3-yl)methyl)-1H-pyrrolo[2,3-b]pyridine-3-carboxamide], the values for the IC50 at EZH2 (rPRC2) (setting [1]) and on Y641N EZH2 (setting [2]) were 0.1 to 1 µM and 1 to 10 µM, respectively.
On the same counts, the results for `CCC(c1ccccc1)n1c(C)c(C(=O)NCc2c(C)cc(C)[nH]c2=O)c2cccnc21` (racemic) [Compound 220, (±)-N-((4,6-dimethyl-2-oxo-1,2-dihydropyridin-3-yl)methyl)-2-methyl-1-(1-phenylpropyl)-1H-pyrrolo[2,3-b]pyridine-3-carboxamide] are under 0.1 µM and 0.1 to 1 µM.
`Cc1cc(C)c(CNC(=O)c2c(C)n(C(C)Cn3cccn3)c3ncccc23)c(=O)[nH]1` (racemic) [Compound 221, (±)-1-(1-(1H-pyrazol-1-yl)propan-2-yl)-N-((4,6-dimethyl-2-oxo-1,2-dihydropyridin-3-yl)methyl)-2-methyl-1H-pyrrolo[2,3-b]pyridine-3-carboxamide]: the values for the IC50 at EZH2 (rPRC2) (setting [3]) and at Y641N EZH2 (setting [4]) were 0.1 to 1 µM and 1 to 10 µM, respectively.
`Cc1cc(C)c(CNC(=O)c2cnn(C(C)c3ccccc3)c2C)c(O)n1` (single isomer, unassigned) [Compound 108, (R or S)—N-((2-hydroxy-4,6-dimethylpyridin-3-yl)methyl)-5-methyl-1-(1-phenylethyl)-1H-pyrazole-4-carboxamide]: the IC50 on EZH2 (rPRC2) (setting [3]) was over 10 µM.
Take `COc1cc(C)[nH]c(=O)c1CNC(=O)c1c(C)n(C(C)c2ccccc2)c2ccccc12` (single isomer, unassigned) [Compound 115, (S or R)N-((4-methoxy-6-methyl-2-oxo-1,2-dihydropyridin-3-yl)methyl)-2-methyl-1-(1-phenylethyl)-1H-indole-3-carboxamide]: the half-inhibitory concentration (IC50) on EZH2 (rPRC2) (read-out: EZH2 IC50, wild-type EZH2 (rPRC2)) is under 0.1 µM.
On to `Cc1cc(C)c(CNC(=O)c2c(C)n(C(C)c3ccccc3)c3ncccc23)c(=O)[nH]1` (single isomer, unassigned) [Compound 117, N-((4,6-dimethyl-2-oxo-1,2-dihydropyridin-3-yl)methyl)-2-methyl-1-(1-phenylethyl)-1H-pyrrolo[2,3-b]pyridine-3-carboxamide], for which the concentration for half-maximal inhibition (IC50) on Y641N EZH2 (read-out: Y641N EZH2 IC50, Y641N mutant EZH2, H3K27Me2 oligonucleosome substrate) was in the range of 0.1 to 1 µM.
The compound `CCC(C)n1c(C)c(C(=O)NCc2c(C)cc(C)[nH]c2=O)c2cccnc21` (single isomer, unassigned) [Compound 196, (R or S)-1-(sec-butyl)-N-((4,6-dimethyl-2-oxo-1,2-dihydropyridin-3-yl)methyl)-2-methyl-1H-pyrrolo[2,3-b]pyridine-3-carboxamide] returned an IC50 against Y641N EZH2 (setting [2]) of 0.1 to 1 µM.
In the case of `Cc1cc(C)c(CNC(=O)c2c(-c3ccccc3)n(C(C)c3ccccc3)c3ccccc23)c(O)n1` (single isomer, unassigned) [Compound 446, (R or S)-N-((2-hydroxy-4,6-dimethylpyridin-3-yl)methyl)-2-phenyl-1-(1-phenylethyl)-1H-indole-3-carboxamide], the “EZH2 IC50” value at EZH2 (rPRC2) (wild-type EZH2 (rPRC2)) is “*(10 uM)”.
